Assay results reported in ChEMBL document CHEMBL1201862, “PubChem BioAssay data set” (2004).
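Each compound was tested at five concentrations against cells in 96-well plates for 48 hours. GI50 is the concentration that inhibits growth by half.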 Active and inactive are the calls of the source. No stated cut-off is given here; in the data, active = GI50 up to about 1.1 µM and inactive = higher.

Legend:
Assay in all cases: NCI anticancer screen, dose series, 48 h
A498 = system: A498
A549 = system: A549
CAKI-1 = system: CAKI-1
CCRF-CEM = system: CCRF-CEM
COLO 205 = system: COLO 205
DLD-1 = system: DLD-1
DMS-114 = system: DMS-114
DMS-273 = system: DMS-273
EKVX = system: EKVX
HCC 2998 = system: HCC 2998
HCT-116 = system: HCT-116
HCT-15 = system: HCT-15
HL-60 = system: HL-60
HOP-18 = system: HOP-18
HOP-62 = system: HOP-62
HOP-92 = system: HOP-92
HT-29 = system: HT-29
IGROV-1 = system: IGROV-1
K562 = system: K562
KM-20L2 = system: KM-20L2
KM12 = system: KM12
LOX IMVI = system: LOX IMVI
M19-MEL = system: M19-MEL
MCF7 = system: MCF7
MOLT-4 = system: MOLT-4
Malme-3M = system: Malme-3M
NCI-H226 = system: NCI-H226
NCI-H23 = system: NCI-H23
NCI-H460 = system: NCI-H460
NCI-H522 = system: NCI-H522
NCI/ADR-RES = system: NCI/ADR-RES
OVCAR-3 = system: OVCAR-3
OVCAR-4 = system: OVCAR-4
OVCAR-5 = system: OVCAR-5
OVCAR-8 = system: OVCAR-8
RPMI-8226 = system: RPMI-8226
RXF 393 = system: RXF 393
SF-268 = system: SF-268
SF-295 = system: SF-295
SF-539 = system: SF-539
SK-MEL-28 = system: SK-MEL-28
SK-MEL-2 = system: SK-MEL-2
SK-MEL-5 = system: SK-MEL-5
SK-OV-3 = system: SK-OV-3
SN12C = system: SN12C
SNB-19 = system: SNB-19
SNB-75 = system: SNB-75
SNB-78 = system: SNB-78
SW-620 = system: SW-620
U-251 = system: U-251
UACC-257 = system: UACC-257
UACC-62 = system: UACC-62
UO-31 = system: UO-31
XF498 = system: XF498
786-0 = system: 786-0
ACHN = system: ACHN
LXFL 529 = system: LXFL 529
M14 = system: M14
TK-10 = system: TK-10

For `S=P1(N2CCCCC2)Oc2ccc3ccccc3c2-c2c(ccc3ccccc23)O1`, the GI50 (A498) was > 35.2 µM (inactive), the GI50 (A549) was > 89.5 µM (inactive) and the GI50 (CAKI-1) was > 44.6 µM (inactive). For the same compound, the GI50 (CCRF-CEM) was > 31.6 µM (inactive), the GI50 (COLO 205) was > 100 µM (inactive) and the GI50 (DLD-1) was 91.2 µM (inactive). For the same compound, the GI50 (DMS-114) was > 83 µM (inactive), the GI50 (DMS-273) was > 80.2 µM (inactive) and the GI50 (EKVX) was > 53.5 µM (inactive). The GI50 (HCC 2998) was > 100 µM (inactive), the GI50 (HCT-116) was > 82.2 µM (inactive) and the GI50 (HCT-15) was 63.7 µM. For the same compound, the GI50 (HL-60) was > 100 µM (inactive), the GI50 (HOP-18) was > 71.8 µM (inactive) and the GI50 (HOP-62) was > 100 µM (inactive). For the same compound, the GI50 (HOP-92) was 92.9 µM (inactive), the GI50 (HT-29) was > 76.2 µM (inactive) and the GI50 (IGROV-1) was > 100 µM (inactive). The GI50 (K562) was 85.7 µM (inactive), the GI50 (KM-20L2) was > 78.9 µM (inactive) and the GI50 (KM12) was > 100 µM (inactive). The GI50 (LOX IMVI) was 60.4 µM (inactive), the GI50 (M19-MEL) was 71 µM (inactive) and the GI50 (MCF7) was > 85.3 µM (inactive). For the same compound, the GI50 (MOLT-4) was > 100 µM (inactive), the GI50 (Malme-3M) was > 46 µM (inactive) and the GI50 (NCI-H226) was > 54.2 µM (inactive). For the same compound, the GI50 (NCI-H23) was > 81.1 µM (inactive), the GI50 (NCI-H460) was 33.6 µM (inactive) and the GI50 (NCI-H522) was 37.8 µM (inactive). For the same compound, the GI50 (NCI/ADR-RES) was > 51.2 µM (inactive), the GI50 (OVCAR-3) was 34.9 µM (inactive) and the GI50 (OVCAR-4) was 27.5 µM (inactive). For the same compound, the GI50 (OVCAR-5) was > 100 µM (inactive), the GI50 (OVCAR-8) was 64.4 µM (inactive) and the GI50 (RPMI-8226) was > 91.2 µM (inactive). For the same compound, the GI50 (RXF 393) was > 89.7 µM (inactive), the GI50 (SF-268) was > 82.2 µM (inactive) and the GI50 (SF-295) was 53.7 µM (inactive). For the same compound, the GI50 (SF-539) was 71.1 µM (inactive), the GI50 (SK-MEL-28) was > 100 µM (inactive) and the GI50 (SK-MEL-2) was 31.6 µM (inactive). For the same compound, the GI50 (SK-MEL-5) was > 71.4 µM (inactive), the GI50 (SK-OV-3) was > 92.5 µM (inactive) and the GI50 (SN12C) was > 100 µM (inactive). The GI50 (SNB-19) was > 100 µM (inactive), the GI50 (SNB-75) was 31.8 µM (inactive) and the GI50 (SNB-78) was 71.4 µM (inactive). The GI50 (SW-620) was > 100 µM (inactive), the GI50 (U-251) was > 65.2 µM (inactive) and the GI50 (UACC-257) was > 100 µM (inactive). For the same compound, the GI50 (UACC-62) was 94.8 µM (inactive), the GI50 (UO-31) was > 80.7 µM (inactive) and the GI50 (XF498) was 56.9 µM (inactive).
In the case of `CCCCc1c2cnccc2c(CCCC)c2c1[nH]c1ccccc12`, the GI50 (786-0) is reported as 10 µM (inactive), the GI50 (A498) is reported as 15.5 µM (inactive) and the GI50 (A549) is reported as 12.1 µM (inactive). For the same compound, the GI50 (ACHN) was 10 µM (inactive), the GI50 (CAKI-1) was 5.9 µM (inactive) and the GI50 (CCRF-CEM) was 9.38 µM (inactive). The GI50 (COLO 205) was 10.3 µM (inactive), the GI50 (DLD-1) was 9.1 µM (inactive) and the GI50 (DMS-114) was 3.99 µM (inactive). The GI50 (DMS-273) was 10.7 µM (inactive), the GI50 (EKVX) was 14.6 µM (inactive) and the GI50 (HCC 2998) was 23.9 µM (inactive). The GI50 (HCT-116) was 3.59 µM (inactive), the GI50 (HCT-15) was 6.84 µM and the GI50 (HOP-18) was 3.59 µM (inactive). For the same compound, the GI50 (HOP-62) was 3.85 µM (inactive), the GI50 (HOP-92) was 12.8 µM (inactive) and the GI50 (HT-29) was 9.91 µM (inactive). The GI50 (IGROV-1) was 12.4 µM (inactive), the GI50 (K562) was 3.54 µM (inactive) and the GI50 (KM-20L2) was 13.6 µM (inactive). For the same compound, the GI50 (KM12) was 8.38 µM (inactive), the GI50 (LOX IMVI) was 13.7 µM (inactive) and the GI50 (LXFL 529) was 11.4 µM (inactive). The GI50 (M14) was 15.7 µM (inactive), the GI50 (M19-MEL) was 12.4 µM (inactive) and the GI50 (MOLT-4) was 2.84 µM (inactive). The GI50 (Malme-3M) was 11.9 µM (inactive), the GI50 (NCI-H226) was 15.7 µM (inactive) and the GI50 (NCI-H23) was 5.33 µM (inactive). For the same compound, the GI50 (NCI-H460) was 15.7 µM (inactive), the GI50 (NCI-H522) was 12.4 µM (inactive) and the GI50 (OVCAR-3) was 5.26 µM (inactive). The GI50 (OVCAR-4) was 8.99 µM (inactive), the GI50 (OVCAR-5) was 44.9 µM (inactive) and the GI50 (OVCAR-8) was 12.9 µM (inactive). For the same compound, the GI50 (RPMI-8226) was 2.9 µM (inactive), the GI50 (RXF 393) was 7.13 µM (inactive) and the GI50 (SF-268) was 14.9 µM (inactive). The GI50 (SF-295) was 7.19 µM (inactive), the GI50 (SF-539) was 3.42 µM (inactive) and the GI50 (SK-MEL-28) was 6.34 µM (inactive). The GI50 (SK-MEL-2) was 12.6 µM (inactive), the GI50 (SK-OV-3) was 27.4 µM (inactive) and the GI50 (SN12C) was 18 µM (inactive). For the same compound, the GI50 (SNB-19) was 7.19 µM (inactive), the GI50 (SNB-75) was 5.87 µM (inactive) and the GI50 (SNB-78) was 25.2 µM (inactive). The GI50 (SW-620) was 12.9 µM (inactive), the GI50 (TK-10) was 19.2 µM (inactive) and the GI50 (U-251) was 12.8 µM (inactive). For the same compound, the GI50 (UACC-257) was 15.1 µM (inactive), the GI50 (UACC-62) was 11.6 µM (inactive) and the GI50 (UO-31) was 10.4 µM (inactive). The GI50 (XF498) was 5.19 µM (inactive).
